Test results from patent US8906929B2, “Inhibitors of human immunodeficiency virus replication” (priority 2012, dated 2014).

What follows are molecules tested on recombinant NL-Rluc virus (assay: Inhibition of HIV replication (NL-RLuc virus in MT-2 cells, luciferase readout)). Conditions: 5 days of incubation, 10% FBS.
Format: cell-based

Question: `Cc1nc2cc3nn2c(c1[C@H](OC(C)(C)C)C(=O)O)-c1ccc2c(c1)C(CCCCCc1ccccc1-c1cccc-3c1)CCO2` (single isomer, unassigned) [Example 9] was tested. Which EC50 did it give?
Answer: 3680 nM

Question: For `Cc1ccc2c(c1)-c1cccc(c1)-c1cc3nc(C)c([C@H](OC(C)(C)C)C(=O)O)c(n3n1)N1CCC(C)(CC1)OCCCC(C)C(C)O2` (single isomer, unassigned) [Example 92], which EC50 is on record?
Answer: 968 nM

Same assay, conditions: Human immunodeficiency virus 1, MT2, 120 h, 5 days of incubation, 10% FBS

Question: For `Cc1ccc2c(c1)-c1cccc(c1)-c1cc3nc(C)c([C@H](OC(C)(C)C)C(=O)O)c(n3n1)N1CCC(C)(CC1)OC=CCCO2` [Example 34, (2S)-2-(tert-Butoxy)-2-[4,17,27-trimethyl-21,26-dioxa-1,5,7,8-tetraazahexacyclo[25.2.2.1^6,^9.1^10,^14.0^2,^7.0^15,^20]tritriaconta-2,4,6(33),8,10(32),11,13,15(20),16,18,24-undecaen-3-yl]acetic acid], which EC50 is on record?
Answer: 14 nM

Question: Which EC50 does the source give for `Cc1cc2c(cc1F)O[C@@H](C)CC=CCOC1(C)CCN(CC1)c1c([C@H](OC(C)(C)C)C(=O)O)c(C)nc3cc(nn13)-c1cccc-2c1` [Example 78, (2S)-2-(tert-Butoxy)-2-[(22S)-18-fluoro-4,17,22,28-tetramethyl-21,27-dioxa-1,5,7,8-tetraazahexacyclo[26.2.2.1^6,^9.1^10,^14.0^2,^7.0^15,^20]tetratriaconta-2,4,6(34),8,10(33),11,13, 15(20), 16,18,24-undecaen-3-yl]acetic acid] here?
Answer: 31 nM

Question: Which EC50 does the source give for `Cc1nc2cc3nn2c(c1[C@H](OC(C)(C)C)C(=O)O)N1CCC(C)(CC1)OCCCC[C@H](C)Oc1cccc(F)c1-c1cccc-3c1` [Example 84, (2S)-2-(tert-Butoxy)-2-[(22S)-16-fluoro-4,22,28-trimethyl-21,27-dioxa-1,5,7,8-tetraazahexacyclo[26.2.2.1^6,^9.1^10,^14.0^2,^7.0^15,^20]tetratriaconta-2,4,6(34),8,10(33),11,13,15(20),16,18-decaen-3-yl]acetic acid] here?
Answer: 12 nM

Question: Which EC50 does the source give for `Cc1ccc2c(c1)-c1cccc(c1)-c1cc3nc(C)c([C@H](OC(C)(C)C)C(=O)O)c(n3n1)N1CCC(C)(CC1)OC/C=C\C[C@H](C)O2` [Example 54, (2S)-2-(tert-Butoxy)-2-[(22S,24Z)-4,17,22,28-tetramethyl-21,27-dioxa-1,5,7,8-tetraazahexacyclo[26.2.2.1^6,^9.1^10,^14.0^2,^7.0^15,^20]tetratriaconta-2,4,6(34),8,10(33),11,13,15(20),16,18,24-undecaen-3-yl]acetic acid] here?
Answer: 130 nM

Question: How did the EC50 turn out when `Cc1nc2cc3nn2c(c1[C@H](OC(C)(C)C)C(=O)O)N1CCC(C)(CC1)OCCCCOc1ccc(F)cc1-c1cccc-3c1` [Example 63, (2S)-2-(tert-Butoxy)-2-{17-fluoro-4,27-dimethyl-21,26-dioxa-1,5,7,8-tetraazahexacyclo[25.2.2.1^6,^9.1^10,^14.0^2,^7.0^15,^20]tritriaconta-2,4,6(33),8,10(32),11,13,15(20),16,18-decaen-3-yl}acetic acid] was run?
Answer: 7 nM

Question: How did the EC50 turn out when `Cc1nc2cc3nn2c(c1[C@H](OC(C)(C)C)C(=O)O)N1CCC(C)(CC1)COCCCCCc1ccccc1-c1cccc-3c1` [Example 106] was run?
Answer: 89 nM

Question: How did the EC50 turn out when `Cc1nc2cc3nn2c(c1[C@H](OC(C)(C)C)C(=O)O)N1CCC(C)(CC1)OCCCC[C@H](C)Oc1cc(C#N)ccc1-c1cccc-3c1` [Example 87, (2S)-2-(tert-Butoxy)-2-[(22S)-18-cyano-4,22,28-trimethyl-21,27-dioxa-1,5,7,8-tetraazahexacyclo[26.2.2.1^6,^9.1^10,^14.0^2,^7.0^15,^20]tetratriaconta-2,4,6(34),8,10(33), 11, 13, 15 (20),16,18-decaen-3-yl]acetic acid] was run?
Answer: 9 nM

Question: For `Cc1nc2cc3nn2c(c1[C@H](OC(C)(C)C)C(=O)O)N1CCC(C)(/C=C/C=C\COc2ccc(Cl)cc2-c2cccc-3c2)CC1` [Example 42, (2S)-2-(tert-Butoxy)-2-[(23Z,25E)-17-chloro-4,27-dimethyl-21-oxa-1,5,7,8-tetraazahexacyclo[25.2.2.1^6,^9.1^10,^14.0^2,^7.0^15,^20]tritriaconta-2,4,6(33),8,10(32), 11, 13, 15(20),16,18,23,25-dodecaen-3-yl]acetic acid], which EC50 is on record?
Answer: 35 nM

Question: `Cc1cc2c(cc1Cl)O[C@@H](C)CCCCOC1(C)CCN(CC1)c1c([C@H](OC(C)(C)C)C(=O)O)c(C)nc3cc(nn13)-c1cccc-2c1` [Example 67, (2S)-2-(tert-butoxy)-2-[(22S)-18-chloro-4,17,22,28-tetramethyl-21,27-dioxa-1,5,7,8-tetraazahexacyclo[26.2.2.1^6,^9.1^10,^14.0^2,^7.0^15,^20]tetratriaconta-2,4,6(34),8,10(33), 11, 13, 15 (20),16,18-decaen-3-yl]acetic acid] was tested. Which EC50 did it give?
Answer: 109 nM

Question: For `Cc1nc2cc3nn2c(c1[C@H](OC(C)(C)C)C(=O)O)-c1cc2c(cc1F)OCCN2CCCCCc1ccccc1-c1cccc-3c1` [Example 6, (2S)-2-(tert-Butoxy)-2-{32-fluoro-4-methyl-29-oxa-5,7,8,26-tetraazaheptacyclo[24.6.2.1^6,^9.1^10,^14.0^2,^7.0^15,^20.0^30,^34]hexatriaconta-1(32),2,4,6(36),8,10(35), 11, 13, 15(20), 16,18,30,33-tridecaen-3-yl}acetic acid], which EC50 is on record?
Answer: 54 nM

Question: Which EC50 does the source give for `Cc1cc2c(cc1Cl)-c1cccc(c1)-c1cc3nc(C)c([C@H](OC(C)(C)C)C(=O)O)c(n3n1)N1CCC(C)(CC1)OCCCC[C@@H](C)O2` [Example 90, (2S)-2-(tert-Butoxy)-2-[(22R)-17-chloro-4,18,22,28-tetramethyl-21,27-dioxa-1,5,7,8-tetraazahexacyclo[26.2.2.1^6,^9.1^10,^14.0^2,^7.0^15,^20]tetratriaconta-2,4, 6(34), 8, 10(33), 11, 13, 15 (20),16,18-decaen-3-yl]acetic acid] here?
Answer: 157 nM

Question: For `Cc1nc2cc3nn2c(c1[C@H](OC(C)(C)C)C(=O)O)N1CCC(C)(CC1)OCCCC[C@H](C)Oc1cc(F)ccc1-c1cccc-3c1` [Example 83, (2S)-2-(tert-Butoxy)-2-[(22S)-18-fluoro-4,22,28-trimethyl-21,27-dioxa-1,5,7,8-tetraazahexacyclo[26.2.2.1^6,^9.1^10,^14.0^2,^7.0^15,^20]tetratriaconta-2,4, 6(34), 8, 10(33), 11, 13, 15(20),16,18-decaen-3-yl]acetic acid], which EC50 is on record?
Answer: 25 nM

Question: With `Cc1nc2cc3nn2c(c1[C@H](OC(C)(C)C)C(=O)O)N1CCC(C)(CC1)OC/C=C/COc1cc(F)ccc1-c1cccc-3c1` [Example 48, (2S)-2-(tert-Butoxy)-2-[(23E)-18-fluoro-4,2,7-dimethyl-21,26-dioxa-1,5,7,8-tetraazahexacyclo[25.2.2.1^6,^9.1^10,^14.0^2,^7.0^15,^20]tritriaconta-2,4,6(33),8,10(32),11,13,15(20),16,18,23-undecaen-3-yl]acetic acid] as the molecule, how does the EC50 read?
Answer: 11 nM

Question: `Cc1ccc2c(c1)-c1cccc(c1)-c1cc3nc(C)c([C@H](OC(C)(C)C)C(=O)O)c(n3n1)N1CCC(C)(CC1)OCCCCO2` [Example 35, (2S)-2-(tert-Butoxy)-2-{4,17,27-trimethyl-21,26-dioxa-1,5,7,8-tetraazahexacyclo[25.2.2.1^6,^9.1^10,^14.0^2,^7.0^15,^20]tritriaconta-2,4,6(33),8,10(32),11,13,15(20),16,18-decaen-3-yl}acetic acid] was tested. Which EC50 did it give?
Answer: 10 nM

Question: How did the EC50 turn out when `Cc1nc2cc3nn2c(c1[C@H](OC(C)(C)C)C(=O)O)N1CCC(C)(CC1)OCC=CCCOc1ccccc1-c1cccc-3c1` [Example 26, (2S)-2-(tert-Butoxy)-2-[4,28-dimethyl-21,27-dioxa-1,5,7,8-tetraazahexacyclo[26.2.2.1^6,^9.1^10,^14.0^2,^7.0^15,^20]tetratriaconta-2,4,6(34),8,10(33),11,13,15(20),16,18,24-undecaen-3-yl]acetic acid] was run?
Answer: 41 nM

Question: For `Cc1nc2cc3nn2c(c1[C@H](OC(C)(C)C)C(=O)O)N1CCC(C)(CC1)OC/C=C/CCc1ccncc1-c1cccc-3c1` [Example 36, (2S)-2-(tert-Butoxy)-2-[(23E)-4,27-dimethyl-26-oxa-1,5,7,8,17-pentaazahexacyclo[25.2.2.1^6,^9.1^10,^14.0^2,^7.0^15,^20]tritriaconta-2,4,6(33),8,10(32),11,13,15(20),16,18,23-undecaen-3-yl]acetic acid], which EC50 is on record?
Answer: 34 nM

Question: Which EC50 does the source give for `Cc1nc2cc3nn2c(c1[C@H](OC(C)(C)C)C(=O)O)N1CCC(C)(CC1)OCC=C[C@H](C)Oc1ccccc1-c1cccc-3c1` [Example 23, (2S)-2-(tert-Butoxy)-2-[(22S)-4,22,27-trimethyl-21,26-dioxa-1,5,7,8-tetraazahexacyclo[25.2.2.1^6,^9.1^10,^14.0^2,^7.0^15,^20]tritriaconta-2,4,6(33),8,10(32),11,13,15(20),16,18,23-undecaen-3-yl]acetic acid] here?
Answer: 11 nM

Question: How did the EC50 turn out when `Cc1nc2cc3nn2c(c1[C@H](OC(C)(C)C)C(=O)O)-c1ccc2c(c1Cl)N(CC=CCCc1ccccc1-c1cccc-3c1)CCO2` [Example 4] was run?
Answer: 125 nM

Question: `Cc1nc2cc3nn2c(c1[C@H](OC(C)(C)C)C(=O)O)N1CCC(C)(CC1)OCC=CCCc1ccccc1-c1cccc-3c1` [Example 18, (2S)-2-(tert-Butoxy)-2-[4,27-dimethyl-26-oxa-1,5,7,8-tetraazahexacyclo[25.2.2.1^6,^9.1^10,^14.0^2,^7.0^15,^20]tritriaconta-2,4,6(33),8,10(32),11,13,15(20),16,18,23-undecaen-3-yl]acetic acid] was tested. Which EC50 did it give?
Answer: 16 nM

Question: How did the EC50 turn out when `Cc1ccc2c(c1)-c1cccc(c1)-c1cc3nc(C)c([C@H](OC(C)(C)C)C(=O)O)c(n3n1)N1CCC(C)(CC1)OCC=CCC[C@H](C)O2` [Example 64, (2S)-2-(tert-Butoxy)-2-[(22S)-4,17,22,29-tetramethyl-21,28-dioxa-1,5,7,8-tetraazahexacyclo[27.2.2.1^6,^9.1^10,^14.0^2,^7.0^15,^20]pentatriaconta-2,4,6(35),8,10(34), 11, 13, 15(20),16,18,25-undecaen-3-yl]acetic acid] was run?
Answer: 26 nM

Question: Which EC50 does the source give for `Cc1nc2cc3nn2c(c1[C@H](OC(C)(C)C)C(=O)O)N1CCC(C)(CC1)OCC=C[C@@H](C)Oc1ccccc1-c1cccc-3c1` (single isomer, unassigned) [Example 22] here?
Answer: 36 nM
